ChEMBL document CHEMBL2074241, “Characterization of binding properties to human P-glycoprotein: development of a [3H]verapamil radioligand-binding assay” (J Pharmacol Exp Ther, 1999)

Target: ATP-dependent translocase ABCB1 (Homo sapiens, UniProt P08183)
Test: TP_TRANSPORTER: inhibition of Verapamil binding in membranes from Vinblastine-induced Caco-2 cells
Format: functional, cell membranes, Membrane

ATP-dependent translocase ABCB1, sequence (P08183 whole entry): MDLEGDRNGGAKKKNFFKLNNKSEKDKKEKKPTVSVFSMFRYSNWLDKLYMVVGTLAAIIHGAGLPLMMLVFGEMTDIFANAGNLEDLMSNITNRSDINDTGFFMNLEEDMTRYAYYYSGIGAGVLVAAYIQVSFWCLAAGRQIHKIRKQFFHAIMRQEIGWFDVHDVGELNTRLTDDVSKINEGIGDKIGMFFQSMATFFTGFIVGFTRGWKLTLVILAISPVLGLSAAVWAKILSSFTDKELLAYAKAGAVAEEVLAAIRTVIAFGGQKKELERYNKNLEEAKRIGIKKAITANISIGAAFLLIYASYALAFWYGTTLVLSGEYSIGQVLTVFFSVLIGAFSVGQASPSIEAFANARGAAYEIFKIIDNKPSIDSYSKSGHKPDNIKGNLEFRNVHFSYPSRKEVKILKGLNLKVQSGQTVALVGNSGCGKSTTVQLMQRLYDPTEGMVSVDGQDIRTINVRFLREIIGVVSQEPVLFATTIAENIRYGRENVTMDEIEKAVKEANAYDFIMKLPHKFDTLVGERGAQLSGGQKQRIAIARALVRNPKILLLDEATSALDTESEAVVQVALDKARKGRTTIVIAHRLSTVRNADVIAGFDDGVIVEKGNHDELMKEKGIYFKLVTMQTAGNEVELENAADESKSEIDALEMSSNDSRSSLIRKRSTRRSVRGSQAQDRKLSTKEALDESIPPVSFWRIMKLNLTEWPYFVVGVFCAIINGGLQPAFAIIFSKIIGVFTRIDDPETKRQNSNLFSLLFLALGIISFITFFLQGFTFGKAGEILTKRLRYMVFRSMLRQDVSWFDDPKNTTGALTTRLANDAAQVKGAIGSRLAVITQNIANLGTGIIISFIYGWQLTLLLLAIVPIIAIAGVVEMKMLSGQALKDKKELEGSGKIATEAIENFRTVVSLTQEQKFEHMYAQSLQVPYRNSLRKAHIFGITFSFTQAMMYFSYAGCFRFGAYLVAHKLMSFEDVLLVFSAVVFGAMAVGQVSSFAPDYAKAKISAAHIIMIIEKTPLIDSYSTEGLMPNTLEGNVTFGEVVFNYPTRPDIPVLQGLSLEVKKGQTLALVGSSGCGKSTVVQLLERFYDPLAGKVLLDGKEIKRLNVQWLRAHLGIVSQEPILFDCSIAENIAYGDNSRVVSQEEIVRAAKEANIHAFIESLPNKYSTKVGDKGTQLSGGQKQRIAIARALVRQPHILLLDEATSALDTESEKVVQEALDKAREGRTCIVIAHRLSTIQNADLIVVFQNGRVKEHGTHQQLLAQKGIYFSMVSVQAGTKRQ

Ki (read-out: Ki1) [nM]	Ki (read-out: Ki2) [nM]	SMILES
470	148000	CC[C@]1(O)C[C@H]2CN(CCc3c([nH]c4ccccc34)[C@@](C(=O)OC)(c3cc4c(cc3OC)N(C=O)[C@H]3[C@@](O)(C(=O)OC)[C@H](OC(C)=O)[C@]5(CC)C=CCN6CC[C@]43[C@@H]65)C2)C1 [VINCRISTINE]
110	3400	COC(=O)c1ccccc1-c1c2ccc(=N)cc-2oc2cc(N)ccc12 [RHODAMINE123]
